Legend:
[1] = tested on: mice with RA; assay: Transmigration of lymphocytes and myeloid cells in the spleens of RA mice, flow cytometry; assay type: in vivo; conditions: spleen, i.p. at 2-day intervals for 4 weeks, similar to MTX-treated group, FIG. 6
Text: A polypeptide of SEQ ID NO: 26 (40 MOOD) was intraperitoneally administered to mice with RA, which had been induced in the same manner in EXPERIMENTAL EXAMPLE 2, at 2-day intervals for 4 weeks. Normal mice, saline-treated RA mice with intraperitoneal injection of a saline solution, and MTX-treated RA mice with intraperitoneal injection of a solution of MTX (100 □) in a saline solution (100 □) were used as control groups. Spleen tissues were harvested from the mice of all the experimental groups and washed with RPMI 1640 media, and single cells were isolated. After the total number of the single cells were counted, the single cells were stained with monoclonal antibodies (anti-CD3^+, CD4^+, CD8^+, CD11^+, CD19^+, CD69^+, Gr-1^+) capable of labeling T cells (CD3^+, CD4^+, CD8^+), activated T cells (CD3^+, CD69^+), B cells (CD19^+), and myeloid cells (CD11^+, Gr-1^+), and flow cytometry analysis was performed. The number of lymphocytes and myeloid cells migrated to […] was measured by determining the number of the T cells, the activated T cells, the B cells, and the myeloid cells per total cell number, and the results are illustrated in FIG. 6.

[2] = tested on: RA mice; assay: Migration of T cells, B cells and myeloid cells into the joint spaces of RA mice, synovial fluid flow cytometry; assay type: in vivo; conditions: dosing as in Experimental Example 3, similar to MTX-treated group, FIG. 7
Description: The polypeptide of the present invention, a saline solution, or MTX was administered to RA mice in the same manner as in EXPERIMENTAL EXAMPLE 3, and synovial fluid was obtained from the joint spaces of the mice of all the experimental groups. After the total cell number in the synovial fluid was counted, flow cytometry analysis was performed in the same manner as in EXPERIMENTAL EXAMPLE 3 to measure the number of T cells (CD3^+), B cells (CD19^+), and myeloid cells (CD11b^+, Gr-1^+) migrated to the joint spaces. The results are illustrated in FIG. 7.

[3] = tested on: B16-F10-Luc-G5 cells (mouse melanoma cell line); assay: In vivo transmigration of cancer cells, B16-F10-Luc-G5 injected into tail veins, lung and liver nodules; conditions: nude mice; 100 μg i.p. at 2-day intervals for 15 days; control peptide SEQ ID NO: 27; FIG. 17
Description: B16-F10-Luc-G5 cells (mouse melanoma cell line, Xenogen, U.S.A.) were injected into the tail veins of 10 nude mice (5 weeks old). The nude mice were divided into five mice for a control group and five mice for a test group. The control group was injected with a mixture of PBS with a peptide consisting of EEFDDAEEFDD (SEQ ID NO: 27) (control peptide) and the test group with a mixture of PBS with 100 μg of a peptide of SEQ ID NO: 26. The control peptide and the peptide of SEQ ID NO: 26 were intraperitoneally administered to the control group and the test group, respectively, at 2-day intervals for 15 days. Then, the nude mice were dissected and the lungs and livers were excised from the nude mice. Tumor nodules were counted.

## SEQ ID NO: 26: polypeptide derived from the mouse CD99, corresponds to the polypeptide of SEQ ID No: 14 derived from human CD99 (SGGISDSDLAD; listed as Mus musculus)
[1]
  migrated cell numbers of T cells, activated T cells, B cells and myeloid cells as fraction of saline-treated group: about ⅔
[2]
  number of T cells, B cells and myeloid cells migrated to joint spaces, relative to saline-treated group: 50-70%
[3]
  degree of spread of melanoma (lung and liver nodules) relative to control group: about 40%
